In article PMC8391421, “Identification of Novel Positive Allosteric Modulators of Neurotrophin Receptors for the Treatment of Cognitive Dysfunction” (Cells, 2021):

Legend:
full-length TrkA-HA = target: T1, full-length TrkA-HA (Homo sapiens, UniProt P04629); experiment: Kinase activity assay of immunoprecipitated HA-tagged full length TrkA (LANCE TR-FRET); format: biochemical; conditions: 5 µM compound, increasing ATP, vs DMSO
T1 construct: Full-length TrkA with a HA-tag (TrkA-HA) fused to the C-terminus; A6 used the anti-HA immunoprecipitate and A14 the 12,000 x g lysate supernatant
Experimental: A cDNA expression plasmid (pCMV3) with C-terminal-HA tagged human NTRK1 cDNA subcloned between the HindIII and XbaI sites was obtained from SinoBiological (NordicBiosite, Sweden). The human neuroblastoma cell line SH-SY5Y (ATCC, LGC Standards GmbH, Wesel, Germany) was transfected with lipofectamine 3000 and 2 µg of the plasmid. Hygromycin was used for the selection, and expansion of the TrkA-positive clones were performed using 200 µg/mL of Hygromycin. A clone with stable TrkA–HA expression was used for protein expression. Briefly, SH-SY5Y-TrkA-HA cells were seeded in T175cm2 flasks and grown until confluency. A total of 10 flasks were used for each experiment. Cells were detached using Accutase and washed twice with Dulbecco’s PBS through centrifugation. The final cell pellet was resuspended in 2 mL lysis buffer (FNN0011, Thermo Fisher Scientific, Gothenburg, Sweden) supplemented with protease and phosphatase inhibitors and 1 mM DTT. The cell suspension was sonicated with a probe sonicator at 40% amplitude for 2 × 5 s. The resulting homogenate was centrifuged for 10 min at 12,000× g. […] TR-FRET was measured using an excitation wavelength of 340 nm and an emission wavelength of 665 nm with an iD5 plate reader (Molecular Devices, Berkshire, RG41 5TS UK). […]

[1] = system: extracellular neurotransmitter levels in ventral hippocampus; experiment: In vivo microdialysis of neurotransmitters in ventral hippocampus; design: species or system rat
Experimental: The microdialysis experiments were conducted using Pronexus AB, Bromma, Sweden (ethical permit N24/14) on awake, freely moving Sprague Dawley rats (n = 6, 7–8 weeks old from Janvier Labs, Le Genest-Saint-Isle, France) as previously described. On the day of the microdialysis experiment, the rat was in its home cage and placed into a frame of a single-beam locomotor activity monitoring system. Locomotor activity of rats undergoing microdialysis sampling was recorded simultaneously in 5-min intervals. A microdialysis probe (Eicom A-I: 0.22 mm O.D., 4 mm membrane length with 50 kDa cut-off) was inserted into the guide cannula of the awake rat. The probe was connected with fluorinated ethylene propylene (FEP) tubing (0.1 mm I.D.) to the balancing arm of the CMA 120 system for freely moving animals (CMA/Microdialysis) equipped with a 2-channel swivel (Microbiotech/se AB, Stockholm, Sweden). […] Concentrations of acetylcholine (ACh) and glutamate (Glu) in the microdialysis samples were measured using ultra-high performance liquid chromatography tandem mass spectrometry (UHPLC-MS/MS), whereas the levels of the monoamines dopamine (DA), noradrenaline (NA), and […] (5-HT) in the microdialysates were measured using ion-exchange narrow bore column liquid chromatography with electrochemical detection as described elsewhere. […]

T1 sequence (P04629 33-796): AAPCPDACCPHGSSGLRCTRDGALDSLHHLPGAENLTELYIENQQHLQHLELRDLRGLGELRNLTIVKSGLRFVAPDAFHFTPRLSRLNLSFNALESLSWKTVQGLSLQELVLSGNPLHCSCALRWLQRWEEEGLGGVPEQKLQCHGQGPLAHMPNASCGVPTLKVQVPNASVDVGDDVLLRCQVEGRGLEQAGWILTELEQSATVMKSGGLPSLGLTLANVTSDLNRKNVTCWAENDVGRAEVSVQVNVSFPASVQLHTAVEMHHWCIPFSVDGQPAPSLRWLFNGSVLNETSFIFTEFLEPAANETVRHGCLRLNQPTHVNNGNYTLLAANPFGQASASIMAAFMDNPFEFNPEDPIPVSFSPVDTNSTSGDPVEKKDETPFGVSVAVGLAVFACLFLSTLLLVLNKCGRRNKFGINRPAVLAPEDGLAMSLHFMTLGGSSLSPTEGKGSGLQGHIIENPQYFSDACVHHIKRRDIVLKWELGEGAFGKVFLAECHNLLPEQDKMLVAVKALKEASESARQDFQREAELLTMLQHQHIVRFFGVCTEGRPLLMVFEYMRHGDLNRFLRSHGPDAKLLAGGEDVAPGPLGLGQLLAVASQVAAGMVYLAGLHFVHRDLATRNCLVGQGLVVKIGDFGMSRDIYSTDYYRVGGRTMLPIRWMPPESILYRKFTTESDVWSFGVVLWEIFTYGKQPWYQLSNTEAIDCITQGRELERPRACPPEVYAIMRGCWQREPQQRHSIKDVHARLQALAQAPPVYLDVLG

## Cc1cc(-n2c(=O)[nH]c(=O)n(C)c2=O)ccc1Oc1ccc(S(=O)(=O)C(F)(F)F)cc1 [ACD855, Toltrazuril-sulfone]
full-length TrkA-HA
  effect on Vmax(app) of TrkA: significantly increase
[1]; local infusion of 30 µM over four hours, freely moving rats, vs vehicle (aCSF)
  increase in extracellular ACh levels in vHPC: 40%
[1]; local infusion of 30 µM, vHPC
  levels of glutamate, noradrenaline, dopamine and 5-hydroxytryptamine: not affected
